According to patent US8247211B2, “Glycopeptide antibiotics” (American Cyanamid Company, priority 2001, dated 2012):
Values after ≈ are worked out from the molar mass of the structure shown. Numbered stars: 1 amine (or outer) side, 2 acyl side, 3 side chain; on linkers, the order of the positions; unused ones are H or OH. Square brackets hold non-standard residues; d marks the D form. Peptide text beside a SMILES is read from it. ξ: configuration not given here. X3 = CC1(C)OCC2OC(N3C(=N)NCC3C(O)C(N[*:1])C(=O)[*:2])C3OC(C)(C)OC3C2O1; ξEnduracididine(βξ-OH,4'ξ) = N=C1NCC(C(O)C(N)C(=O)O)N1; ξPhe(βξ-Me) = CC(c1ccccc1)C(N)C(=O)O

Columns and labels:
Test in all cases: In vitro antibacterial evaluation: minimum inhibitory concentration (MIC), broth dilution method
Assay type in all cases: cell-based
Settings in all cases: 18 hours at 35° C.
Enterococcus sp. = test system: Enterococcus sp.
Procedure, shortened: (§1)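 Following NCCLS approved standard M7-A2, compounds are serially diluted from 64 to 0.06 μg/mL in Muller-Hinton II […] and inoculated at 5×10^5 CFU/mL; the MIC is the minimum concentration at which growth is inhibited.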

Escherichia coli = test system: Escherichia coli
Procedure, shortened: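 Susceptibility determined by NCCLS-recommended broth dilution (M7-A2), Muller-Hinton II […]. Concentration span 64-0.06 μg/mL, inoculum 5×10^5 CFU/mL. Isolates include strains resistant to methicillin, penicillin and/or vancomycin.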

Staphylococcus sp. = test system: Staphylococcus sp.
Procedure, shortened: as §1

Streptococcus sp. = test system: Streptococcus sp.
Procedure, shortened: as §1

[1] = Streptococcus agalactiae (GC 4564)
[2] = Streptococcus pneumoniae (ATCC 6301)
[3] = Streptococcus pneumoniae (GC 1894)
[4] = Streptococcus pneumoniae (GC 4565)
[5] = Streptococcus pyogenes (GC 4563)
[6] = broth dilution, inoculum 5×10^5 CFU/mL

SMILES | MIC Enterococcus avium (GC 4558) (Enterococcus sp.) [mg/L] | MIC Enterococcus faecium (GC 4557) (Enterococcus sp.) [mg/L] | MIC Escherichia coli (GC 4560) (Escherichia coli) [mg/L] | MIC Coagulase Negative Staphylococcus (GC 4547) (Staphylococcus sp.) [mg/L] | MIC Coagulase Negative Staphylococcus (GC 4548) (Staphylococcus sp.) [mg/L] | MIC Coagulase Negative Staphylococcus (GC 4549) (Staphylococcus sp.) [mg/L] | MIC Coagulase Negative Staphylococcus (GC 4551) (Staphylococcus sp.) [mg/L] | MIC Coagulase Negative Staphylococcus (GC 6257) (Staphylococcus sp.) [mg/L] | MIC Staphylococcus aureus (ATCC 29213) (Staphylococcus sp.) [mg/L] | MIC Staphylococcus aureus (GC 3051) (Staphylococcus sp.) [mg/L] | MIC Staphylococcus aureus (GC 4541) (Staphylococcus sp.) [mg/L] | MIC Staphylococcus aureus (GC 4542) (Staphylococcus sp.) [mg/L] | MIC Staphylococcus aureus (GC 4544) (Staphylococcus sp.) [mg/L] | MIC Staphylococcus aureus (GC 4545) (Staphylococcus sp.) [mg/L] | MIC Staphylococcus aureus-SMITH (GC 4543) (Staphylococcus sp.) [mg/L] | MIC Streptococcus agalactiae (GC 4564) (Streptococcus sp.; [1]) [mg/L] | MIC Streptococcus pneumoniae (ATCC 6301) (Streptococcus sp.; [2]) [mg/L] | MIC Streptococcus pneumoniae (GC 1894) (Streptococcus sp.; [3]) [mg/L] | MIC Streptococcus pneumoniae (GC 4565) (Streptococcus sp.; [4]) [mg/L] | MIC Streptococcus pyogenes (GC 4563) (Streptococcus sp.; [5]) [mg/L] | further results
CC(c1ccccc1)C1NC(=O)CNC(=O)C(CO)NC(=O)C(CC2CNC(=N)N2C2OC(CO)C(O)C(O)C2O)NC(=O)C(CC2CNC(=N)N2)NC(=O)C(Cc2ccc(OC3OC(CO)C(OC4OC(CO)C(O)C(OCc5ccc(OCc6ccccc6)cc5)C4O)C(O)C3O)cc2)NC1=O (centres unmarked) [Example 246b] | 64 (≈ 43.8 µM) | 32 (≈ 21.9 µM) | 32 (≈ 21.9 µM) | 64 (≈ 43.8 µM) | 64 (≈ 43.8 µM) | 32 (≈ 21.9 µM) | 64 (≈ 43.8 µM) | 64 (≈ 43.8 µM) | 64 (≈ 43.8 µM) | 64 (≈ 43.8 µM) | 64 (≈ 43.8 µM) | 64 (≈ 43.8 µM) | 64 (≈ 43.8 µM) | 64 (≈ 43.8 µM) | >64 | 64 (≈ 43.8 µM) | 32 (≈ 21.9 µM) | 32 (≈ 21.9 µM) | 64 (≈ 43.8 µM) | 64 (≈ 43.8 µM) | MIC Streptococcus agalactiae (GC 4564) (Streptococcus sp.; [6]): 64 mg/L (≈ 43.8 µM); MIC Streptococcus pneumoniae (ATCC 6301) (Streptococcus sp.; [6]): 32 mg/L (≈ 21.9 µM); MIC Streptococcus pneumoniae (GC 1894) (Streptococcus sp.; [6]): 32 mg/L (≈ 21.9 µM); MIC Streptococcus pneumoniae (GC 4565) (Streptococcus sp.; [6]): 64 mg/L (≈ 43.8 µM); MIC Streptococcus pyogenes (GC 4563) (Streptococcus sp.; [6]): 64 mg/L (≈ 43.8 µM)
CC(c1ccccc1)C1NC(=O)CNC(=O)C(CO)NC(=O)C(C(O)C2CNC(=N)N2C2OC3COC(C)(C)OC3C3OC(C)(C)OC32)NC(=O)C(C(O)C2CNC(=N)N2)NC(=O)C(Cc2ccc(O)cc2)NC1=O (stereo not drawn) [Example 247, Cyclo[glycyl-β-methylphenylalanyltyrosyl-3-(2-iminoimidazolidin-4-yl)seryl-3-(2,3:4,6-diisopropylidenehexopyranosyl)-2-iminoimidazolidin-4-ylserylseryl]] (cyclo(G[ξPhe(βξ-Me)]Y[ξEnduracididine(βξ-OH,4'ξ)][X3]S); configuration not given here) | >64 | >64 | >64 | >64 | >64 | >64 | >64 | >64 | >64 | >64 | >64 | >64 | >64 | >64 | >64 | >64 | >64 | >64 | >64 | >64 | MIC Enterococcus faecalis (ATCC 29212) (Enterococcus sp.): >64 mg/L; MIC Enterococcus faecalis (GC 2242) (Enterococcus sp.): >64 mg/L; MIC Enterococcus faecalis (GC 2691) (Enterococcus sp.): >64 mg/L; MIC Enterococcus faecalis (GC 3059) (Enterococcus sp.; Enterococcus faecalis (GC 3059)): >64 mg/L; MIC Enterococcus faecalis (GC 4552) (Enterococcus sp.; Enterococcus faecalis (GC 4552)): >64 mg/L; MIC Enterococcus faecalis (GC 4553) (Enterococcus sp.): >64 mg/L; MIC Enterococcus faecalis (GC 4554) (Enterococcus sp.): >64 mg/L; MIC Enterococcus faecalis (GC 6189) (Enterococcus sp.): >64 mg/L; MIC Enterococcus faecium (GC 2243) (Enterococcus sp.): >64 mg/L; MIC Enterococcus faecium (GC 4556) (Enterococcus sp.): >64 mg/L; MIC Escherichia coli (ATCC 25922) (Escherichia coli): >64 mg/L; MIC Escherichia coli (GC 4559) (Escherichia coli): >64 mg/L; MIC Staphylococcus aureus (GC 1131) (Staphylococcus sp.): >64 mg/L; MIC Staphylococcus aureus (GC 3053) (Staphylococcus sp.): >64 mg/L; MIC Staphylococcus haemolyticus (GC 4546) (Staphylococcus sp.): >64 mg/L
CC(c1ccccc1)C1NC(=O)CNC(=O)C(CO[Si](C)(C)C(C)(C)C)NC(=O)C(C(O)C2CNC(=N)N2C2OC3COC(C)(C)OC3C3OC(C)(C)OC32)NC(=O)C(C(O)C2CNC(=N)N2)NC(=O)C(Cc2ccc(O)cc2)NC1=O (centres unmarked) [Example 248] | 8 (≈ 6.86 µM) | 16 (≈ 13.7 µM) | 8 (≈ 6.86 µM) | 16 (≈ 13.7 µM) | 32 (≈ 27.5 µM) | 32 (≈ 27.5 µM) | 32 (≈ 27.5 µM) | 16 (≈ 13.7 µM) | 32 (≈ 27.5 µM) | 64 (≈ 54.9 µM) | 32 (≈ 27.5 µM) | 64 (≈ 54.9 µM) | 32 (≈ 27.5 µM) | 32 (≈ 27.5 µM) | 32 (≈ 27.5 µM) | 64 (≈ 54.9 µM) | 64 (≈ 54.9 µM) | 64 (≈ 54.9 µM) |  | 32 (≈ 27.5 µM) | MIC Enterococcus faecalis (ATCC 29212) (Enterococcus sp.): 64 mg/L (≈ 54.9 µM); MIC Enterococcus faecalis (GC 2242) (Enterococcus sp.): 64 mg/L (≈ 54.9 µM); MIC Enterococcus faecalis (GC 2691) (Enterococcus sp.): 32 mg/L (≈ 27.5 µM); MIC Enterococcus faecalis (GC 4553) (Enterococcus sp.): 16 mg/L (≈ 13.7 µM); MIC Enterococcus faecalis (GC 4554) (Enterococcus sp.): 64 mg/L (≈ 54.9 µM); MIC Enterococcus faecalis (GC 6189) (Enterococcus sp.): 32 mg/L (≈ 27.5 µM); MIC Enterococcus faecium (GC 2243) (Enterococcus sp.): 32 mg/L (≈ 27.5 µM); MIC Enterococcus faecium (GC 4556) (Enterococcus sp.): 32 mg/L (≈ 27.5 µM); MIC Escherichia coli (ATCC 25922) (Escherichia coli): 64 mg/L (≈ 54.9 µM); MIC Escherichia coli (GC 4559) (Escherichia coli): 64 mg/L (≈ 54.9 µM); MIC Staphylococcus aureus (GC 1131) (Staphylococcus sp.): 32 mg/L (≈ 27.5 µM); MIC Staphylococcus aureus (GC 3053) (Staphylococcus sp.): 64 mg/L (≈ 54.9 µM); MIC Staphylococcus haemolyticus (GC 4546) (Staphylococcus sp.): 16 mg/L (≈ 13.7 µM)
